Here are results for four molecules from US20200376138A1, “LIPID NANO PARTICLE COMPLEX COMPRISING APTIDE FUSED WITH CELL PENETRATING MATERIALS AND USE SAME” (Korea Advanced Institute of Science and Technology, priority 2019, published 2020).

pKd: −log10 of the molar value. Ends that are not written are not given here.

One series relates to psoriasis animal model. Briefly: Inhibitory effect on inflammation in imiquimod-induced psoriasis animal model. It is filed as in vivo, mouse. The conditions noted are these: day 7. As to the method:
The nanoparticle complex prepared in Example 3 was applied on the skin of a psoriasis animal model and the inhibitory effect of the complex on inflammation caused by psoriasis was investigated. First, the hair of the ear of the mouse was removed, and imiquimod was continuously treated at the concentration of 20 mg/cm^2 for 6 days from the next day to induce psoriasis. On the other hand, on the 2nd to 6th day of the treatment of imiquimod, the nanoparticle complex of Example 3 or Comparative Example 3 was applied in a total amount of 100 μg, 50 μg per time. On the day when imiquimod and the treatment drug were treated together, the treatment drug was applied 4 hours before and after the application of imiquimod to prevent the interaction between the drugs. At this time, the groups treated with Vaseline and DW were used as the negative control, and the group applied with clobetasol propionate (CLQ) at the concentration of 20 mg/cm^2 was used as the positive control. The application of the nanoparticle complex was completed by day 6, and the inhibitory effect on inflammation was confirmed using the animal model on day 7 (FIG. 14). Particularly, the inhibitory effect on inflammation was confirmed by measuring the thickness of the ear of the animal model, the punch biopsy weight, tissue H&E test, ELISA after tissue crushing, and the extracted spleen weight. […]

The next series has as its system MLE12 cells. The experiment in a line: Epithelial-to-myofibroblast differentiation, vimentin FACS after TGF-β. The series is classed as cell-based.
A further series addresses STAT3 protein (Homo sapiens, UniProt P40763). The experiment in a line: Binding of the aptide to STAT3 protein. To be noted: read-out: affinity of binding to STAT3 protein. As to the method:
The aptide according to the present invention can be an aptide that specifically binds to STAT3 (signal transducer and activator of transcription 3) protein, and can specifically be composed of the amino acid sequence represented by SEQ. ID. NO: 2. the aptide for STAT3 protein is stable with a size of about 5 kDa, and can bind to STAT3 protein with a high affinity of 200 nM. The aptide for STAT3 protein can inhibit the activation of STAT3 protein by binding to SH2 domain of STAT3 protein and suppressing the phosphorylation. This mechanism may have less effect on an inaccurate target than a conventional JAK inhibitor that inhibits the activation of STAT3 protein using the JAK inhibitory mechanism.

A further series has as its system RAW264.7 cells. Briefly: M2 polarization of IL-10 stimulated macrophages, CD163 FACS. It is filed as cell-based, mouse. To be noted: 20 μM, IL-10 stimulation 48 h. As to the method: To perform FACS analysis, mouse macrophage cell line (RAW264.7) was seeded in a 6-well plate at 2×10^5 cells/well density and incubated overnight for stabilization. In order to induce M2-type polarization, the samples were stimulated with IL-10 for 48 h in a 37° C.-maintained, 5% CO2 incubator. PBS, APTscr-9R(20 μM), and APTstat3-9R(20 μM) were simultaneously accordingly added for co-treatment. After the incubation, the specimens were collected and incubated for 30 min with 10% BSA in PBS to block non-specific binding of antibodies. After blocking, the samples were washed with three changes of 1×PBS for 5 min each. The collected specimens were resuspended in a 1 mL of separation buffer. The cells were collected in the filter tubes with strainer ([…]). After buffer removal, direct immunostaining was performed using phycoerythrin-cojugated CD163 monoclonal primary antibody (Invitrogen, Waltham, Mass., USA) at […] with 90 min incubation at 4° C. Upon the incubation, the cells were once again washed with three changes of 1×PBS for 5 min. […] The samples (20,000 cells) were analyzed using a LSR Fortessa™ high-performance multi-parameter flow cytometer (BD Bioscience, San Jose, Calif., USA) processed with FlowJo software (Tree Star Inc., San Carlos, Calif., USA).

Series [1] concerns MLE12 lung epithelial cells. Briefly: Lung epithelial cell uptake (confocal, FACS). The series is classed as cell-based. To be noted: 20 μM, 4 h. As to the method: In vitro cell uptake of FITC-APTstat3-9R and FITC-APTstat3-9R-DLNPs was determined by confocal microscopy imaging and FACS analysis. For confocal imaging, MLE12 cells were seeded on sterile cover glass in 12-well plate at 5×10^5 cells/well density followed by overnight incubation. The cells were treated with PBS, FITC-APTstat3-9R (20 μM), or FITC-APTstat3-9R-DLNPs (20 μM) for 4 h. The samples were washed twice with 1×PBS to discard free aptides. Subsequent sample preparation and analysis were described previously in in vitro macrophage polarization analysis section. For FACS experiment, MLE 12 cells were seeded in a 6-well plate at 3×10^5 cells/well density and incubated overnight for stabilization. The samples were treated with PBS, FITC-APTstat3-9R (20 μM), or FITC-APTstat3-9R-DLNPs (20 μM) for 4 h, washed, and collected using trypsin. The following steps were previously detailed in in vitro macrophage polarization analysis.

Sequence of STAT3 protein (P40763 whole entry, species assumed, the tested form may be a part): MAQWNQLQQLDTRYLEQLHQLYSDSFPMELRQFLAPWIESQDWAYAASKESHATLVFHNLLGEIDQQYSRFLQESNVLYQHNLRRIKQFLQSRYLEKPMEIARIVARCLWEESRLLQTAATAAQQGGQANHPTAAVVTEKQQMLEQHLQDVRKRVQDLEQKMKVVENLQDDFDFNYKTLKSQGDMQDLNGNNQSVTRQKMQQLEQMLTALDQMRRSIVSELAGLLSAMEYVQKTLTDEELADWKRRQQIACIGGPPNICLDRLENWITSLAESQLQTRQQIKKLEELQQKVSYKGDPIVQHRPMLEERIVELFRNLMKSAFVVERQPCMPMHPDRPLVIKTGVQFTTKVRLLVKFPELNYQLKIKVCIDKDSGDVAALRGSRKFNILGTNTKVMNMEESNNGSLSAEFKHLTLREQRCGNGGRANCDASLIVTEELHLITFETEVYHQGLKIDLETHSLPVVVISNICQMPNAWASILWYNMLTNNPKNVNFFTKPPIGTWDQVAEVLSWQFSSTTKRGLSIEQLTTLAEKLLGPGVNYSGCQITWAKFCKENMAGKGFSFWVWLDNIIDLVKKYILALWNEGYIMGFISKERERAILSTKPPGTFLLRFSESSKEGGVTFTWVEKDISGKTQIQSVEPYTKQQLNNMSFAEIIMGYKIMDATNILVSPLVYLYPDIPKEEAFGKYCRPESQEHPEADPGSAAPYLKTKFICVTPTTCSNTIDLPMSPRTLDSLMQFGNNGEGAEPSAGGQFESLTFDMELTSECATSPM

On to `CCC(=O)O[C@]1(C(=O)CCl)[C@@H](C)C[C@H]2[C@@H]3CCC4=CC(=O)C=C[C@]4(C)[C@@]3(F)[C@@H](O)C[C@@]21C` [CLQ, clobetasol propionate], for which the “size and weight of the spleen” value with psoriasis animal model is on record as “shrivelled”. Take “APTscr-9R: control aptide, SEQ ID NO:9; b173 calls it a lipid nanoparticle complex prepared as Example 3 with this aptide (HASDRNGSWTWENGKWTWKGLHEQSD; also: part of a lipid nanoparticle complex) [reference compound]”: the “vimentin marker level after stimulation” value in the series on MLE12 cells is listed as “vastly increased”. As for “HGFQWPGSWTWENGKWTWKGAYQFLK [aptide for STAT3 protein]”, the pKd at STAT3 protein is 6.70. Consider “HGFQWPGSWTWENGKWTWKGAYQFLKGGGGSRRRRRRRRR (Aptide against STAT3 fused with nona-arginine) [APTstat3-9R]”, for which, in the series with RAW264.7 cells, the “increase in CD163 level (M2 macrophage specific marker)” value was “not upregulated”. Also, the “uptake into MLE 12 lung epithelial cells (confocal images)” value in series [1] is “uptaken”. In addition, the “vimentin marker level after stimulation” value in the series with MLE12 cells is “fairly decreased”. In the series with MLE12 cells (TGF-β stimulation), the “reduction of vimentin level compared to PBS treated group” value is reported as “approximately 29%”.
